The target in one data set is T1, human ERβ (Homo sapiens, UniProt Q92731).
T1 construct: M214-Q530 of human ERβ; Flag (C); made in house; host or cells: E. coli BL21(DE3), clarified lysate
In words: Radioligand binding competition with [3H]-17β-estradiol, ERβ. To be noted: human ERβ ligand binding domain, read-out: ER-β IC50.

The target in the next data set is T2, human ERα (Homo sapiens, UniProt P03372).
T2 construct: amino acids M250-V595 of human ERα; His (N); made in house; host or cells: E. coli BL21(DE3), clarified lysate
T2 sequence (P03372 250-595): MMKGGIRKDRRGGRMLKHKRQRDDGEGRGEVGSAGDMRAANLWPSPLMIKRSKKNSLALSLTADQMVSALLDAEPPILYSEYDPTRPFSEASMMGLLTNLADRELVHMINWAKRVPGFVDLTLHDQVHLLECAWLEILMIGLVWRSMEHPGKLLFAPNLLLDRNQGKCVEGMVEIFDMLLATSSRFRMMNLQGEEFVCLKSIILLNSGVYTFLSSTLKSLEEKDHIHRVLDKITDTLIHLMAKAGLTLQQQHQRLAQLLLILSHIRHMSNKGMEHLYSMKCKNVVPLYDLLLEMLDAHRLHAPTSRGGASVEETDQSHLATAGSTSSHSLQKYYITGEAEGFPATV
In words: Radioligand binding competition with [3H]-17β-estradiol, ERα. As to conditions: human ERα ligand binding domain, read-out: ER-α IC50.

The next data set relates to 129 SvE mice. In words: Mouse uterotrophic test procedure (Procedure 2). The class given is in vivo. To be noted: 50 mg/kg subcutaneously, 4 days, immature mice. The method, then:
Procedure 2: Sexually immature (18 days of age) 129 SvE mice were obtained from Taconic and provided unrestricted access to a casein-based diet (Purina Mills 5K96C) and water. On day 22, 23, 24 and 25 the mice were dosed subcutaneously with compound or vehicle (corn oil). There were six mice/group and they were euthanized approximately 6 hours after the last injection by CO2 asphyxiation and pneumothorax. Uteri were removed and weighed after trimming associated fat and expressing any internal fluid. The following results (Table (2)) were obtained for representative compounds from the invention.

The next data set deals with casein kinase II mRNA. In words: Mammary end bud test procedure (rat mammotrophic assay). The class given is in vivo. To be noted: 0.1 mg/kg sc + progesterone 30 mg/kg; ovariectomized rats; vehicle 1.61 ± 0.36. As to the method:
Estrogens are required for full ductal elongation and branching of the mammary ducts, and the subsequent development of lobulo-alveolar end buds under the influence of progesterone. In this test procedure, the mammotrophic activity of selected compounds of the invention was evaluated according to the following standard pharmacological test procedure. Twenty-eight day old Sprague-Dawley rats (Taconic Farms, Germantown, N.Y.) were ovariectomized and rested for nine days. […] For the final three days, rats were also dosed subcutaneously with progesterone (30 mg/kg). On the seventh day, rats were euthanised and a mammary fat pad excised. This fat pad was analyzed for casein kinase II mRNA as a marker of end bud proliferation. Casein kinase II mRNA was anlayzed by real-time RT-PCR. Briefly, RNA was isolated following Trizol (GibcoBRL, Grand Island, N.Y.) according to the manufacture's directions, Samples were treated with DNAse I using DNA-free kit (Ambion), and casein kinase II mRNA levels were measured by real-time RT-PCR using the Taqman Gold procedure (PE Applied Biosystems). […] Casein kinase II mRNA levels were normalized to 18s ribosomal RNA contained within each sample reaction using primers and probe supplied by PE Applied Biosystems. The following results were obtained for an example of the invention (Table (4)).

The subject of data set [1] is progesterone receptor mRNA in the preoptic area of the rat brain. In words: Progesterone receptor mRNA regulation test procedure. It is filed as in vivo. As to conditions: 10 mg/kg, vehicle 4.3 ± 1.5. The text has this:
This test procedure can be used to evaluate the estrogenic or antiestrogenic activity of compounds from this invention [Shughrue, et al., Endocrinology 138: 5476-5484 (1997)].

[2] abbreviates: second experiment, vehicle 10.3 ± 0.8.

The structures appear in SMILES notation.

T1 sequence (Q92731 214-530): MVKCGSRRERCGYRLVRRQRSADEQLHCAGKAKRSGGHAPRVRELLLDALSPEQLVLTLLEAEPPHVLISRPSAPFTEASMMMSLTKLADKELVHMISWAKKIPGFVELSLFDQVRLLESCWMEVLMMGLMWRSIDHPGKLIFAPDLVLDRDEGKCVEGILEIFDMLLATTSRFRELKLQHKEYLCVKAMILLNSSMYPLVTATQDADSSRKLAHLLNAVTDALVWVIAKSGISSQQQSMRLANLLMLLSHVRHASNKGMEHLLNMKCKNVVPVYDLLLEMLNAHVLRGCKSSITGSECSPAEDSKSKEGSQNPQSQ

One may read the IC50 as the midpoint of a concentration-inhibition curve. `COc1c(Cl)c2c(c3ccc(O)cc13)OCc1cc(O)ccc1-2` [Example 1m, 11-Chloro-12-methoxy-6H-dibenzo[c,h]chromene-2,8-diol]: the IC50 was 0.27 nM on human ERβ and 10.4 nM at human ERα.
The like results for `Oc1ccc2c(c1)COc1c-2cc(Br)c2c(O)cccc12` [Example 1w, 12-Bromo-6H-dibenzo[c,h]chromene-1,8-diol] were, in that order, 1.4 nM and 10 nM.
As a reminder, the melting point is the temperature, or range, at which the solid turns liquid. `N#Cc1cc2c(c3ccc(O)c(Cl)c13)OCc1cc(O)ccc1-2` [Example 1f, 1-Chloro-2,8-dihydroxy-6H-dibenzo[c,h]chromene-12-carbonitrile] registered a melting point above 250 °C. In addition, the concentration for half-maximal inhibition (IC50) on human ERβ was 3.5 nM. For the same compound, the IC50 at human ERα came to 156 nM.
On to `C[C@]12CC[C@@H]3c4ccc(O)cc4CC[C@H]3[C@@H]1CC[C@@H]2O` [17β-estradiol, reference compound], for which the “mean uterine weight ± SEM” value with 129 SvE mice (first experiment, vehicle 9.5 ± 0.3) turned out to be 46.7 ± 2.5 mg; in the data set on 129 SvE mice (setting [2]), 45.3 ± 1.9 mg. Also, the “Casein kinase II mRNA/18S rRNA (mean ± SEM)” value in the data set with casein kinase II mRNA is given as 39.0 ± 5.4.
As to `Oc1ccc2c(c1)COc1c-2ccc2c(Cl)c(O)ccc12` [Example 1g, 1-Chloro-6H-dibenzo[c,h]chromene-2,8-diol], the melting point was 216 to 218 °C. Moreover, the 50% inhibitory concentration (IC50) on human ERβ was 2.7 nM. Besides, the IC50 at human ERα was determined as 74 nM.
The like results for `Oc1ccc2c(c1)COc1c-2cc(Br)c2cc(O)ccc12` [Example 1h, 12-Bromo-6H-dibenzo[c,h]chromene-2,8-diol] were, in that order, 178 to 180 °C (dec.), 0.9 nM and 26 nM.
`Oc1ccc2c3c(cc(Cl)c2c1)-c1cc(F)c(O)cc1CO3` [Example 1k, 12-Chloro-9-fluoro-6H-dibenzo[c,h]chromene-2,8-diol]: the melting point is 215 to 220 °C (dec.). Moreover, the IC50 at human ERβ was 2 nM. For the same compound, on human ERα, the IC50 amounted to 27 nM.
The matching figures for `CCc1cc2c(c3ccc(O)cc13)OCc1cc(O)ccc1-2` [Example 1p, 12-Ethyl-6H-dibenzo[c,h]chromene-2,8-diol]: 184 to 192 °C, 2.9 nM and 44 nM.
The like results for `Oc1ccc2c3c(ccc2c1)-c1cc(F)c(O)cc1CO3` [Example 1b, 9-Fluoro-6H-dibenzo[c,h]chromene-2,8-diol] were, in that order, 230 to 231 °C (dec.), 1.8 nM and 20 nM.
As to `Oc1ccc2c(c1)COc1c-2cc(Cl)c2c(O)cccc12` [Example 1v, 12-Chloro-6H-dibenzo[c,h]chromene-1,8-diol], the IC50 turned out to be 0.9 nM on human ERβ and 4.5 nM at human ERα.
For `Oc1ccc2c(c1)COc1c-2ccc2cc(O)ccc12` [Example 1a, 6H-Dibenzo[c,h]chromene-2,8-diol], the melting point is 248 to 252 °C (dec.). At human ERβ, the IC50 came to 3.3 nM. In addition, the IC50 on human ERα was determined as 74 nM.
Regarding `Cc1cc2c(c3ccc(O)cc13)OCc1cc(O)ccc1-2` [Example 1n, 12-Methyl-6H-dibenzo[c,h]chromene-2,8-diol], the melting point was 220 to 224 °C (dec.). The IC50 on human ERβ amounted to 2.7 nM. Besides, the 50% inhibitory concentration (IC50) at human ERα was determined as 102 nM.
In the case of `Oc1ccc2c(c1)COc1c-2cc(-c2ccsc2)c2cc(O)ccc12` [Example 1q, 12-Thien-3-yl—6H-dibenzo[c,h]chromene-2,8-diol], the melting point was in the range of 179 to 182 °C. Further, the IC50 on human ERβ came out at 29.2 nM. Also, at human ERα, the IC50 is 154 nM.
Regarding `N#Cc1cc2c(c3cccc(O)c13)OCc1cc(O)ccc1-2` [Example 1x, 1,8-Di hydroxy-6H-di benzo[c,h]chromene-12-carbonitrile], the IC50 at human ERβ amounted to 1.5 nM; on human ERα, 86 nM.
Regarding `Oc1ccc2c(c1)COc1c-2ccc2c(O)c(Cl)ccc12` [Example 1y, 2-Chloro-6H-dibenzo[c,h]chromene-1,8-diol], the melting point was 181 to 182 °C (dec.). In addition, the 50% inhibitory concentration (IC50) on human ERβ was determined as 1.65 nM. On human ERα, the IC50 worked out at 17.6 nM.
In the case of `N#Cc1cc2c(c3ccc(O)cc13)OCc1cc(O)c(F)cc1-2` [Example 1e, 9-fluoro-2,8-dihydroxy-6H-dibenzo[c,h]chromene-12-carbonitrile], the melting point was above 250 °C. In addition, at human ERβ, the IC50 worked out at 19 nM. Moreover, at human ERα, the concentration for half-maximal inhibition (IC50) was found to be 1230 nM.
The like results for `Oc1ccc2c3c(cc(Br)c2c1)-c1cc(F)c(O)cc1CO3` [Example 1j, 12-Bromo-9-fluoro-6H-dibenzo[c,h]chromene-2,8-diol] were, in that order, 194 to 197 °C, 2 nM and 77 nM.
In turn, `Oc1ccc2c(c1)COc1c-2ccc2ccccc12` [Example 1c, 6H-Dibenzo[c,h]chromen-8-ol] showed a melting point of 192 to 194 °C. Moreover, at human ERβ, the 50% inhibitory concentration (IC50) was determined as 79.7 nM. Also, at human ERα, the IC50 was determined as 460 nM.
In the case of `Oc1ccc2c(c1)COc1c-2ccc2c(O)ccc(Cl)c12` [Example 1z, 4-chloro-6H-dibenzo[c,h]chromene-1,8-diol], the IC50 on human ERβ was 0.8 nM; on human ERα, 10 nM.
`CCCCc1cc2c(c3ccc(O)cc13)OCc1cc(O)ccc1-2` [Example 1s, 12-Butyl-6H-dibenzo[c,h]chromene-2,8-diol]: the melting point lay within 118 to 121 °C. Besides, the 50% inhibitory concentration (IC50) at human ERβ was determined as 3 nM. For the same compound, the concentration for half-maximal inhibition (IC50) at human ERα was 71 nM.
In turn, `C=Cc1cc2c(c3ccc(O)cc13)OCc1cc(O)ccc1-2` [Example 1o, 12-Vinyl-6H-dibenzo[c,h]chromene-2,8-diol] came in with a melting point above 220 °C. In addition, the IC50 on human ERβ amounted to 2.3 nM. The IC50 on human ERα came to 81 nM.
The like results for `Oc1ccc2c(c1)COc1c-2ccc2c(O)cccc12` [Example 1u, 6H-dibenzo[c,h]chromene-1,8-diol] were, in that order, 213 to 214 °C, 1.4 nM and 17 nM.
`Oc1ccc2c(c1)COc1c-2cc(Cl)c2cc(O)ccc12` [Example 1i, 12-Chloro-6H-dibenzo[c,h]chromene-2,8-diol]: the melting point was 212 to 216 °C (dec.). In addition, the half-maximal inhibitory concentration (IC50) on human ERβ was determined as 1.1 nM. The IC50 on human ERα is 17 nM. The “mean uterine weight ± SEM” value in the data set on 129 SvE mice (setting [2]) came to 28.9 ± 2.0 mg. Moreover, in data set [1], the “Progesterone receptor mRNA (mean ± stdev)” value came out at 57.5 ± 14.0 arbitrary units.
Consider `Oc1ccc2c(c1)COc1c-2cc(-c2cccs2)c2cc(O)ccc12` [Example 1r, 12-Thien-2-yl-6H-dibenzo[c,h]chromene-2,8-diol], for which the melting point was in the range of 191 to 193 °C. On human ERβ, the IC50 amounted to 48.3 nM. Besides, the IC50 on human ERα was 217 nM.
The matching figures for `COc1cc2c(c3ccc(O)cc13)OCc1cc(O)ccc1-2` [Example 1l, 12-Methoxy-6H-dibenzo[c,h]chromene-2,8-diol]: 224 °C (dec.), 16 nM and 147 nM.
The like results for `CCCc1cc2c(c3ccc(O)cc13)OCc1cc(O)ccc1-2` [Example 1t, 12-Propyl-6H-dibenzo[c,h]chromene-2,8-diol] were, in that order, 86 to 95 °C, 11 nM and 160 nM.

For the origin of these results see patent US6723747B2, “Substituted 6H-DiBenzo[c,h]chromenes as estrogenic agents” (Wyeth, priority 2001, dated 2004).
